# Paper PMC5819854 (ACS Omega, 2017)
# Read-outs that look alike come from different tables or passages of the source.
# Experiments:
# human D3R = human D3R (Homo sapiens, UniProt P35462); assay: Radioligand competition binding, human D3R
# human μOR = human μOR (Homo sapiens, UniProt P35372); assay: biochemical; assay type: binding
# human κOR = human κOR (Homo sapiens, UniProt P41145); assay: biochemical; assay type: binding
# human δOR = human δOR (Homo sapiens, UniProt P41143); assay: biochemical; assay type: binding
# human δOR, sequence (P41143 whole entry): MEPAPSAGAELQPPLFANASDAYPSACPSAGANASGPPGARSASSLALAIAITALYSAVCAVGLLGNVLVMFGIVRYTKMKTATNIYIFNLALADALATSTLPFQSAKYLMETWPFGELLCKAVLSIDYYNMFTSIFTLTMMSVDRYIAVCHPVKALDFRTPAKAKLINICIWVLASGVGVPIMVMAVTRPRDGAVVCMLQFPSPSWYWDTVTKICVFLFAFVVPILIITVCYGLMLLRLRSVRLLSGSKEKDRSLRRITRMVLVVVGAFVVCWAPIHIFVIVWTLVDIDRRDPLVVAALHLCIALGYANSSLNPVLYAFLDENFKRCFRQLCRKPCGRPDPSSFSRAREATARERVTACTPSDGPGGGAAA
# human μOR, sequence (P35372 whole entry): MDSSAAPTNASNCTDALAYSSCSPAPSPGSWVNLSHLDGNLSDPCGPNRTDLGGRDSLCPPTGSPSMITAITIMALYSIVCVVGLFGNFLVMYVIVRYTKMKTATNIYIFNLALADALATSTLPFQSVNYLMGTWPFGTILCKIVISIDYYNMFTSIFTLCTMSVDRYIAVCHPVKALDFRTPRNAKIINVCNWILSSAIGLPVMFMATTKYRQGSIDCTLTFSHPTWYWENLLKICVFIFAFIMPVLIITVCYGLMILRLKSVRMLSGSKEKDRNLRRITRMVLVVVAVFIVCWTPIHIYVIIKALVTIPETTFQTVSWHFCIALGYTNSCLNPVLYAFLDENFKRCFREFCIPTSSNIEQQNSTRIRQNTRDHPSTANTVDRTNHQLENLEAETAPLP
# human D3R, sequence (P35462 whole entry): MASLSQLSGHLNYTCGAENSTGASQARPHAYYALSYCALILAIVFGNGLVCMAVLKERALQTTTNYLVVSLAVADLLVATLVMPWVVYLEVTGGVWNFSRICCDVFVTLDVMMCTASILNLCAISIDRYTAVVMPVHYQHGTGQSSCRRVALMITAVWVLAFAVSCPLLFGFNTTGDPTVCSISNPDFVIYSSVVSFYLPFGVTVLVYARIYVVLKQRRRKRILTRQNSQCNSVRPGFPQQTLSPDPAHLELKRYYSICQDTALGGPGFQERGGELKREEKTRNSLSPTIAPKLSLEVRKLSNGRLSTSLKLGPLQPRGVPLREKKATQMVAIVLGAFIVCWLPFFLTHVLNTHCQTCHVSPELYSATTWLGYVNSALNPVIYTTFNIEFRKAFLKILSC
# human κOR, sequence (P41145 whole entry): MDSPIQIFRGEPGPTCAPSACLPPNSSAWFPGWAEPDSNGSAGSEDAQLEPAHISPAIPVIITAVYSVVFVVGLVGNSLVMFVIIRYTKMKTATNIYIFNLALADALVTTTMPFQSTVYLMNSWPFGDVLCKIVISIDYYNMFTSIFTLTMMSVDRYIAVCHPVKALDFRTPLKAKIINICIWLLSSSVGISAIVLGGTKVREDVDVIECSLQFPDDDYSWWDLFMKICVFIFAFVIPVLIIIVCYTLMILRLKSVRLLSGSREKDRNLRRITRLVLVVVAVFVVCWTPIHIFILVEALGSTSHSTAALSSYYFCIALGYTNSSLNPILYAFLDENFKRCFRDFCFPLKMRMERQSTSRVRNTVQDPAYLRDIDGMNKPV
molecule,measurement,setting,value
2-(4-Fluoro-2-methoxyphenyl)-N-(4-(4-(2-methoxyphenyl)piperazine-1-yl)but-1-yl)azocarboxamide [3d],affinity for the D3 receptor (in words),human D3R,single-digit
2-(4-Fluorobiphen-2-yl)-N-(4-(4-(3-methoxyphenyl)piperazine-1-yl)but-1-yl)azocarboxamide [3e],affinity for the D3 receptor (in words),human D3R,sub-nanomolar
same,"D3 selectivity over 5-HT1A, Ki(5-HT1A/D3)",human D3R; ratio of Ki values,43
same,increase of D3 affinity compared to reference compound 3a,human D3R; vs ortho- and meta-unsubstituted 3a,10 fold
"CN(C)C1(CNC(=O)/N=N/c2ccc(F)cc2)CCCCC1 [4a, (E)-N-((1-(Dimethylamino)cyclohexyl)methyl)-2-(4-fluorophenyl)diazene-1-carboxamide]",Ki,human μOR,2.5 ± 1.1 µM
same,selectivity between the κ and μ opioid receptor subtypes (in words),human μOR,did not show any selectivity
same,Ki,human κOR,3.1 ± 0.78 µM
"Cc1cc(F)ccc1/N=N/C(=O)NCC1(N(C)C)CCCCC1 [4b, (E)-N-((1-(Dimethylamino)cyclohexyl)methyl)-2-(4-fluoro-2-methylphenyl)diazene-1-carboxamide]",Ki,human μOR,4.9 ± 0.35 µM
same,Ki,human κOR,6.1 ± 1.8 µM
"Cc1cc(/N=N/C(=O)NCC2(N(C)C)CCCCC2)ccc1F [4c, (E)-N-((1-(Dimethylamino)cyclohexyl)methyl)-2-(4-fluoro-3-methylphenyl)diazene-1-carboxamide]",Ki,human μOR,1.1 ± 0.35 µM
same,affinity for the μ-opioid receptor (in words),human μOR,micromolar
same,subtype selectivity Ki(δOR/μOR),human μOR,27
same,subtype selectivity Ki(κOR/μOR),human μOR,4.4
same,Ki,human κOR,4.8 ± 1.8 µM
"COc1cc(F)ccc1/N=N/C(=O)NCC1(N(C)C)CCCCC1 [4d, (E)-N-((1-(Dimethylamino)cyclohexyl)methyl)-2-(4-fluoro-2-methoxyphenyl)diazene-1-carboxamide]",Ki,human μOR,7.4 ± 5.2 µM
same,selectivity between the κ and μ opioid receptor subtypes (in words),human μOR,did not show any selectivity
same,Ki,human δOR,38 ± 38 µM
same,Ki,human κOR,7.2 ± 1.8 µM
(E)-N-((1-(Dimethylamino)cyclohexyl)methyl)-2-(4-fluorobiphen-2-yl)diazene-1-carboxamide [4e],Ki,human μOR; read-out: Ki μOR,2.1 ± 0.57 µM
same,Ki,human κOR; read-out: Ki κOR,4.8 ± 1.3 µM
